# Experimental data published in patent US20190117586A1, “METHODS OF PREVENTING OR TREATING PARKINSON'S DISEASE BY THE FARNESYLATION OF PARIS” (The Johns Hopkins University, priority 2016, published 2019).
# Experiments:
# PPARα and PPARγ = PPARα and PPARγ levels, target genes and PPAR responsive element in SH-SY5Y cells; type: cell-based
# PGC-1α = PGC-1α level in brain regions of farnesol-fed mice; type: in vivo; details: farnesol-fed mice versus normal mouse chow
# Protocol: (§1) Farnesol is a natural organic compound in both plants and animals. Phosphate derivatives of farnesol are the building blocks of cholesterol in mammalian cells. […] The level of PGC-1α was measured from different brain regions in farnesol-fed mice. PGC-1α levels increase 2.7-fold in the olfactory bulb (OB), 1.6-fold in hippocampus (HIP), and 1.7-fold in substantia nigra (SN) as compared to that of mice on normal mouse chow (FIGS. 2H and 2I). […] In addition, mRNA levels of PGC-1α and a variety of PGC-1α's target genes in the STR, HIP, and SN of farnesol-fed mice were measured.
# [1] = system: PGC-1α and PGC-1α's target genes; experiment: mRNA of PGC-1α and target genes in STR, HIP and SN of farnesol-fed mice; type: in vivo
# Protocol: as §1
# PGC-1α and NRF-1 = experiment: shRNA knockdown of PARIS in SH-SY5Y cells; type: cell-based
# PARIS = PARIS farnesylation in SH-SY5Y cells transfected with Flag-tagged PARIS (immunoprecipitation); type: cell-based
# Protocol: Geraniol or geranylgeraniol have no effect on PGC-1α levels (FIG. 3H).
# To confirm that farnesylation of PARIS requires FTase, siRNA-FTase α knockdown or FTI-277 inhibition of FTase in the setting of PARIS overexpression was performed (FIG. 4C). […] To ascertain whether the farnesylation of PARIS affects the DNA binding activity of PARIS on the IRS motif of the PGC-1α promoter, a chromatin immunoprecipitation assay (ChIP) was performed from SH-SY5Y transfected with GFP-tagged PARIS WT or GFP-tagged PARIS C631S. […] To examine the possibility that the farnesylation of PARIS alters its subcellular distribution, subcellular fractionation was used to monitor the levels of PARIS in cytosolic, membrane, soluble nuclear, and chromatin-bound nuclear fractions by immunoblot analysis (FIG. 4F).
# Tg-PARIS mice = experiment: Tet inducible conditional PARIS transgenic mice (Tg-PARIS); type: in vivo
# Description: A C-terminal FLAG tagged human PARIS under the control of a tetracycline responsive regulator (TetP-PARIS-Flag) was used to generate tetracycline responsive transgenic mice (Figure S5A). […] Three of the highest copy number male founder mice were crossed with the CamKIIα-tTA transgenic mice to achieve transgene expression throughout the mouse forebrain (Mayford et al., 1996). […] Thus, dams were maintained on doxycycline to suppress PARIS expression and pups were maintained on doxycycline diet for three weeks after birth. […] Dopamine neuronal number was assessed at 6 weeks of age when the mice were moribund by unbiased stereology counting of TH and Nissl positive neurons.
# A second cohort of Tg-PARIS mice were maintained on […] prior to doxycycline withdrawal. Two groups of non-transgenic control (CamKIIα-tTA or TetP-PARIS) mice were subjected to the same dietary regimen.
# To generate tet-off conditional PARIS transgenic mice, linearized transgenic constructs (NotI digestion, 8 kbp) were microinjected into the embryos and the embryos were transferred into B6D2F1 pseudo-pregnant female mice (Transgenic Animal Core of National Cancer Institute). The three high copy founders (line #121, 158, 179) were mated with C57/BL6 mice for two to three generations to establish the transgenic lines. PARIS induction in conditional transgenic mice was suppressed by feeding the mice with doxycycline-containing food (doxycycline Diet-Sterile, 200 mg per kg doxycycline, Bio-Serv).
# [2] = Farnesol concentration in brain and plasma of farnesol diet fed mice by mass spectrometry; type: in vivo; details: 0.5% w/w trans-farnesol in AIN-76A diet; for concentration at 7 days: mouse, oral, 0.5 % w/w in diet
# α-syn PFF-injected mice = α-syn PFF-injected mice (WT and C638S KI); type: in vivo; details: farnesol diet from 2 weeks post-injection; WT versus C638S KI
# Description: Specifically, FIG. 16A illustrates generating Zfp746^C638S/C638S knockin mice (C638S KI) by CRISPR/Cas9. […] WB, western blot analysis. (FIG. 16B). […] (FIG. 16C). […] Stereological TH, Nissl-positive neuronal counting was indicated at the bottom, n=4 mice per group. (FIG. 16 D). […] WT, n=8, 9, 10, and 9 mice for each group; C638S KI, n=8, 10, 9, and 9 mice for each group. (FIG. 16 D). […] WT, n=8, 9, 10, and 9 mice for each group; C638S KI, n=9, 10, 9, and 9 mice for each group. (FIG. 16F). […] Data=mean±SEM. (FIG. 16G).
# Statistical significance was determined by two-way ANOVA test with Tukey post-hoc analysis. Differences were considered significant when p<0.05. *p<0.05, **p<0.01, and ***p<0.001.
# [3] = farnesol fed versus normal chow fed mice
# [4] = SH-SY5Y, Flag-tagged PARIS, farnesol treatment 48 hours
smiles,measurement,setting,value
"CC(C)=CCC/C(C)=C/CC/C(C)=C/CO [farnesol, (2E,6E)-3,7,11-trimethyldodeca-2,6,10-trien-1-ol]",activation of a PPAR responsive element,PPARα and PPARγ,fails to activate
same,"levels of PPARα and PPARγ protein and mRNA and target genes ACOX1, CPT-1A, MCAD, LCAD",PPARα and PPARγ,fails to influence
same,"PGC-1α level increase, hippocampus (HIP)",PGC-1α,1.6 fold
same,"PGC-1α level increase, olfactory bulb (OB)",PGC-1α,2.7 fold
same,"PGC-1α level increase, substantia nigra (SN)",PGC-1α,1.7 fold
same,"PGC-1α levels in cerebellum (CBM), brain stem (BS), striatum (STR), frontal cortex (CTX)",PGC-1α,No significant change
same,"mRNA levels of SOD2, TFAM, UCP2, and CYTC","[1]; farnesol fed mice, SN, HIP, STR","exclusively increased in SN, but not in the HIP and STR"
same,"mRNA level of PGC-1α in HIP, SN and STR",[1]; [3],"significantly upregulated in the HIP and SN, but not in the STR"
same,"mRNA levels of NRF-1, COX II, and COX IV",[1]; [3],upregulated in both HIP and SN
same,PGC-1α and NRF-1 levels after knockdown of PARIS,PGC-1α and NRF-1,fails to enhance the levels further
same,restoration of PGC-1α levels with PARIS C631S mutant,PARIS; PARIS C631S mutant,no effect
same,farnesylation of FLAG-PARIS C631S mutant,"PARIS; PARIS C631S mutant, in the presence of farnesol",no farnesylation
same,PGC-1α level with PARIS WT,PARIS; PARIS WT,upregulation of PGC-1α
same,farnesylation of FLAG-PARIS WT,"PARIS; PARIS WT, farnesol treatment",farnesylation is increased
same,PARIS farnesylation,PARIS; [4],increases PARIS farnesylation in a dose-dependent manner
same,PGC-1α accompanying PARIS farnesylation,PARIS; [4],increase in PGC-1α
same,dopaminergic neuronal PGC-1α immunoreactivity,"Tg-PARIS mice; Tg-PARIS SN, co-immunostaining",increased dopaminergic neuronal PGC-1α immunoreactivity
same,Pole Test behavior,"Tg-PARIS mice; Tg-PARIS, farnesol diet",complete behavioral rescue
same,"farnesylation of PARIS (FLAG immunoprecipitation, farnesyl antibody)","Tg-PARIS mice; Tg-PARIS, farnesol diet",enhanced farnesylation of PARIS
same,premature lethality due to PARIS overexpression,"Tg-PARIS mice; Tg-PARIS, farnesol diet",delays the premature lethality
same,reduction in PGC-1α and NRF-1 levels,"Tg-PARIS mice; Tg-PARIS, farnesol diet",blocked
same,loss of dopamine neurons in the SN (TH and Nissl stereology),"Tg-PARIS mice; Tg-PARIS, farnesol diet from 3 days prior to doxycycline withdrawal",completely prevents the loss of dopamine neurons
same,mRNA level of PGC-1α and NRF-1 in the SN,Tg-PARIS mice; farnesol-fed versus normal chow-fed mice,significantly upregulated
same,PGC-1α and NRF-1 levels in control mice,"Tg-PARIS mice; non-transgenic control mice, farnesol diet",increases PGC-1α and NRF-1 levels
same,increase of farnesol level in the brain versus control diet fed mice,[2]; 7 days,37%
same,concentration at 7 days,[2]; brain,155 ng/g
same,concentration at 7 days,"[2]; plasma, non-detectable on control diet",113 ng/mL
same,neuroprotective effect in α-syn PFF-injected mice,α-syn PFF-injected mice,requires PARIS farnesylation in vivo
